Measured values published in the supplement of paper PMC10627819.

Assays:
S. aureus DSM 20231 [1] = assay: Bliss interaction score (quartile over a dose matrix) (fitness difference); higher = more antagonism (negative = synergy)
Procedure, shortened: (§1)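 The Bliss score was calculated by subtracting the expected fitness, the product of single-drug values, from the observed fitness. OD595 at entry into stationary phase, over the plate's robust no-drug mean and capped at 1, served as the fitness readout. Single-drug values were inferred from combination data, and scores are summarised by quartiles across technical, biological and donor/recipient replicates.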

S. aureus Newman [2] = assay: as above
Procedure, shortened: as §1

S. pneumoniae D39V = assay: as above
Procedure, shortened: as §1

B. subtilis 168 = assay: as above
Procedure, shortened: as §1

S. aureus DSM 20231 [3] = assay: fitness (endpoint OD595 vs no drug) (fraction); higher = more growth
Procedure, shortened: (§2)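 Fitness expresses the optical density reached at the stationary-phase transition as a fraction of the robust mean of no-drug control wells. It is capped at 1. Measurements were OD595 every 30 min for 14 h at 37 °C after inoculation of 384-well plates at OD595 0.01 (30 µl, or 55 µl for S. pneumoniae), minus the first reading.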

S. aureus Newman [4] = assay: as above
Procedure, shortened: as §2
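For Bliss interaction score (quartile over a dose matrix) in this document: first quartile when negative (synergy) and third quartile when positive (antagonism).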

O=C(N[C@H](CO)[C@H](O)c1ccc([N+](=O)[O-])cc1)C(Cl)Cl [Chloramphenicol] + COc1ccc(C[C@H](N)C(=O)N[C@H]2[C@@H](O)[C@H](n3cnc4c(N(C)C)ncnc43)O[C@@H]2CO)cc1 [Puromycin]
Conditions	Bliss interaction score
B. subtilis 168	-0.0629
S. aureus DSM 20231 [1]	0.0724
S. aureus Newman [2]	-0.111
S. pneumoniae D39V	-0.0967

fitness
Conditions	first compound 0.75 µg/mL	first compound 1.5 µg/mL	first compound 3 µg/mL
S. aureus DSM 20231 [3], partner 0.39 µg/mL	0.764	–	0.11
S. aureus DSM 20231 [3], partner 0.78 µg/mL	0.759	0.585	0.0684
S. aureus DSM 20231 [3], partner 1.56 µg/mL	0.782	0.455	–
S. aureus Newman [4], partner 0.39 µg/mL	0.764	0.502	0.145
S. aureus Newman [4], partner 0.78 µg/mL	0.777	0.501	0.121
S. aureus Newman [4], partner 1.56 µg/mL	0.807	0.501	–

fitness, S. aureus DSM 20231 [3], one replicate
Conditions	first compound 0.75 µg/mL	first compound 1.5 µg/mL	first compound 3 µg/mL
partner 3.12 µg/mL	0.771	0.231	0.0598
partner 6.24 µg/mL	0.387	–	0.0594

O=C(N[C@H](CO)[C@H](O)c1ccc([N+](=O)[O-])cc1)C(Cl)Cl [Chloramphenicol] + C[C@@H]1O[C@@H]1P(=O)(O)O [Fosfomycin]
Conditions	Bliss interaction score
B. subtilis 168	0.129
S. aureus DSM 20231 [1]	0.0517
S. aureus Newman [2]	-0.108
S. pneumoniae D39V	0.0635

fitness
Conditions	first compound 0.75 µg/mL	first compound 1.5 µg/mL	first compound 3 µg/mL
S. aureus DSM 20231 [3], partner 0.781 µg/mL	0.633	0.473	0.116
S. aureus DSM 20231 [3], partner 1.562 µg/mL	0.558	0.402	0.0874
S. aureus DSM 20231 [3], partner 3.124 µg/mL	0.436	0.265	0.0652
S. aureus Newman [4], partner 0.781 µg/mL	0.491	0.394	0.117
S. aureus Newman [4], partner 1.562 µg/mL	0.452	0.272	0.0456
S. aureus Newman [4], partner 3.124 µg/mL	0.117	0.0322	0.0343

O=C(N[C@H](CO)[C@H](O)c1ccc([N+](=O)[O-])cc1)C(Cl)Cl [Chloramphenicol] + C[n+]1ccc(-c2cc[n+](C)cc2)cc1 [Paraquat]
Conditions	Bliss interaction score
B. subtilis 168	0.0402
S. aureus DSM 20231 [1]	0.0604
S. aureus Newman [2]	-0.058
S. pneumoniae D39V	0.0595

fitness
Conditions	first compound 0.75 µg/mL	first compound 1.5 µg/mL	first compound 3 µg/mL
S. aureus DSM 20231 [3], partner 1.25 µg/mL	0.684	0.564	0.121
S. aureus DSM 20231 [3], partner 2.5 µg/mL	0.711	0.626	0.159
S. aureus DSM 20231 [3], partner 5 µg/mL	0.688	0.618	0.158
S. aureus Newman [4], partner 1.25 µg/mL	0.724	0.423	0.164
S. aureus Newman [4], partner 2.5 µg/mL	0.715	0.429	0.15
S. aureus Newman [4], partner 5 µg/mL	0.739	0.476	–

O=C(N[C@H](CO)[C@H](O)c1ccc([N+](=O)[O-])cc1)C(Cl)Cl [Chloramphenicol] + Cc1cc(NS(=O)(=O)c2ccc(N)cc2)no1 [Sulfamethoxazol]
Conditions	Bliss interaction score
B. subtilis 168	0.0483
S. aureus DSM 20231 [1]	-0.0341
S. aureus Newman [2]	0.0702
S. pneumoniae D39V	-0.0682

fitness
Conditions	first compound 0.75 µg/mL	first compound 1.5 µg/mL	first compound 3 µg/mL
S. aureus DSM 20231 [3], partner 1 µg/mL	0.614	0.541	0.115
S. aureus DSM 20231 [3], partner 2 µg/mL	0.652	0.526	0.102
S. aureus DSM 20231 [3], partner 4 µg/mL	0.709	0.49	–
S. aureus Newman [4], partner 1 µg/mL	0.837	0.583	0.199
S. aureus Newman [4], partner 2 µg/mL	0.899	0.652	0.172
S. aureus Newman [4], partner 4 µg/mL	0.909	0.647	0.179

S. aureus Newman [4], partner 8 µg/mL, one replicate
Conditions	fitness
first compound 0.75 µg/mL	0.889
first compound 1.5 µg/mL	0.694
first compound 3 µg/mL	0.35

O=C(N[C@H](CO)[C@H](O)c1ccc([N+](=O)[O-])cc1)C(Cl)Cl [Chloramphenicol] + Cc1onc(-c2ccccc2)c1C(=O)N[C@@H]1C(=O)N2[C@@H]1SC(C)(C)[C@@H]2C(=O)O [Oxacillin]
Conditions	Bliss interaction score
B. subtilis 168	-0.0473
S. aureus DSM 20231 [1]	0.0696
S. aureus Newman [2]	0.0445
S. pneumoniae D39V	0.0937

fitness
Conditions	first compound 0.75 µg/mL	first compound 1.5 µg/mL	first compound 3 µg/mL
S. aureus DSM 20231 [3], partner 0.0156 µg/mL	0.677	0.461	–
S. aureus DSM 20231 [3], partner 0.0312 µg/mL	0.6	0.392	0.113
S. aureus DSM 20231 [3], partner 0.0625 µg/mL	0.489	0.478	0.0972
S. aureus Newman [4], partner 0.0156 µg/mL	0.734	0.573	0.253
S. aureus Newman [4], partner 0.0312 µg/mL	0.617	0.484	0.143
S. aureus Newman [4], partner 0.0625 µg/mL	0.555	0.359	–

O=C(N[C@H](CO)[C@H](O)c1ccc([N+](=O)[O-])cc1)C(Cl)Cl [Chloramphenicol] + Cn1nnc(-c2ccc(-c3ccc(N4C[C@H](CO)OC4=O)cc3F)cn2)n1 [Tedizolid]
Conditions	Bliss interaction score
B. subtilis 168	-0.101
S. aureus DSM 20231 [1]	-0.157
S. aureus Newman [2]	-0.179
S. pneumoniae D39V	-0.068

fitness
Conditions	partner 0.0625 µg/mL	partner 0.125 µg/mL	partner 0.25 µg/mL
S. aureus DSM 20231 [3], first compound 0.75 µg/mL	0.584	0.538	0.189
S. aureus DSM 20231 [3], first compound 1.5 µg/mL	0.412	0.285	0.168
S. aureus DSM 20231 [3], first compound 3 µg/mL	0.0827	0.07	0.0466
S. aureus Newman [4], first compound 3 µg/mL	–	0.095	0.0603

CCC[C@@H]1C[C@@H](C(=O)N[C@@H]([C@H]2O[C@H](SC)[C@H](O)[C@@H](O)[C@H]2O)[C@H](C)Cl)N(C)C1 [Clindamycin] + CCCCCCCCCC(=O)N[C@@H]1[C@H]([C@@H]([C@H](O[C@H]1OC2=C3C=C4C=C2OC5=C(C=C(C=C5)[C@H]([C@H]6C(=O)N[C@@H](C7=C(C(=CC(=C7)O)OC8[C@H]([C@H]([C@@H]([C@H](O8)CO)O)O)O)C9=C(C=CC(=C9)[C@H](C(=O)N6)NC(=O)[C@@H]4NC(=O)[C@@H]1C2=CC(=CC(=C2)OC2=C(C=CC(=C2)[C@H](C(=O)N[C@H](CC2=CC(=C(O3)C=C2)Cl)C(=O)N1)N)O)O)O)C(=O)O)O[C@H]1[C@@H]([C@H]([C@@H]([C@H](O1)CO)O)O)NC(=O)C)Cl)CO)O)O [Teicoplanin]
main component drawn
Conditions	Bliss interaction score
B. subtilis 168	-0.117
S. aureus DSM 20231 [1]	0.0389
S. aureus Newman [2]	0.137
S. pneumoniae D39V	-0.0604

fitness, main component drawn
Conditions	partner 0.1562 µg/mL	partner 0.3125 µg/mL	partner 0.625 µg/mL
S. aureus DSM 20231 [3], first compound 0.125 µg/mL	0.0489	0.0449	0.0526
S. aureus Newman [4], first compound 0.0312 µg/mL	0.679	0.864	0.854
S. aureus Newman [4], first compound 0.0625 µg/mL	0.448	0.431	0.483
S. aureus Newman [4], first compound 0.125 µg/mL	0.0629	0.0636	0.0614

fitness, S. aureus Newman [4], one replicate, main component drawn
Conditions	first compound 0.0312 µg/mL	first compound 0.0625 µg/mL	first compound 0.125 µg/mL
partner 0.62 µg/mL	0.86	0.74	0.358
partner 1.24 µg/mL	0.938	0.839	0.307
partner 2.48 µg/mL	0.755	0.726	0.154

O=C(O[C@@H]1Cc2c(O)cc(O)cc2O[C@@H]1c1cc(O)c(O)c(O)c1)c1cc(O)c(O)c(O)c1 [EGCG] + CCCCCCCCCC(=O)N[C@@H]1[C@H]([C@@H]([C@H](O[C@H]1OC2=C3C=C4C=C2OC5=C(C=C(C=C5)[C@H]([C@H]6C(=O)N[C@@H](C7=C(C(=CC(=C7)O)OC8[C@H]([C@H]([C@@H]([C@H](O8)CO)O)O)O)C9=C(C=CC(=C9)[C@H](C(=O)N6)NC(=O)[C@@H]4NC(=O)[C@@H]1C2=CC(=CC(=C2)OC2=C(C=CC(=C2)[C@H](C(=O)N[C@H](CC2=CC(=C(O3)C=C2)Cl)C(=O)N1)N)O)O)O)C(=O)O)O[C@H]1[C@@H]([C@H]([C@@H]([C@H](O1)CO)O)O)NC(=O)C)Cl)CO)O)O [Teicoplanin]
main component drawn
Conditions	Bliss interaction score
B. subtilis 168	-0.096
S. aureus DSM 20231 [1]	0.125
S. aureus Newman [2]	0.0918
S. pneumoniae D39V	0.0672

fitness, main component drawn
Conditions	first compound 12.5 µg/mL	first compound 25 µg/mL	first compound 50 µg/mL
S. aureus DSM 20231 [3], partner 0.1562 µg/mL	0.846	0.833	0.892
S. aureus DSM 20231 [3], partner 0.3125 µg/mL	0.957	0.968	0.959
S. aureus DSM 20231 [3], partner 0.625 µg/mL	0.935	≥ 1	–
S. aureus Newman [4], partner 0.1562 µg/mL	0.833	0.805	0.749
S. aureus Newman [4], partner 0.3125 µg/mL	0.716	0.824	0.698
S. aureus Newman [4], partner 0.625 µg/mL	0.819	0.806	0.823

fitness, S. aureus Newman [4], one replicate, main component drawn
Conditions	first compound 12.5 µg/mL	first compound 25 µg/mL	first compound 50 µg/mL
partner 0.62 µg/mL	0.62	0.662	0.558
partner 1.24 µg/mL	0.646	0.604	0.565
partner 2.48 µg/mL	0.538	0.51	0.475

COc1c(N2C[C@@H]3CCCN[C@@H]3C2)c(F)cc2c(=O)c(C(=O)O)cn(C3CC3)c12 [Moxifloxacin] + CCCCCCCCCC(=O)N[C@@H]1[C@H]([C@@H]([C@H](O[C@H]1OC2=C3C=C4C=C2OC5=C(C=C(C=C5)[C@H]([C@H]6C(=O)N[C@@H](C7=C(C(=CC(=C7)O)OC8[C@H]([C@H]([C@@H]([C@H](O8)CO)O)O)O)C9=C(C=CC(=C9)[C@H](C(=O)N6)NC(=O)[C@@H]4NC(=O)[C@@H]1C2=CC(=CC(=C2)OC2=C(C=CC(=C2)[C@H](C(=O)N[C@H](CC2=CC(=C(O3)C=C2)Cl)C(=O)N1)N)O)O)O)C(=O)O)O[C@H]1[C@@H]([C@H]([C@@H]([C@H](O1)CO)O)O)NC(=O)C)Cl)CO)O)O [Teicoplanin]
main component drawn
Conditions	Bliss interaction score
B. subtilis 168	-0.0201
S. aureus DSM 20231 [1]	0.0596
S. aureus Newman [2]	-0.0744
S. pneumoniae D39V	-0.0767

fitness, main component drawn
Conditions	first compound 0.0075 µg/mL	first compound 0.015 µg/mL	first compound 0.03 µg/mL
S. aureus DSM 20231 [3], partner 0.1562 µg/mL	0.912	0.852	0.748
S. aureus DSM 20231 [3], partner 0.3125 µg/mL	≥ 1	0.94	0.752
S. aureus DSM 20231 [3], partner 0.625 µg/mL	≥ 1	0.991	0.745
S. aureus Newman [4], partner 0.1562 µg/mL	0.773	0.597	0.0859
S. aureus Newman [4], partner 0.3125 µg/mL	0.797	0.577	0.0839
S. aureus Newman [4], partner 0.625 µg/mL	0.717	–	0.06

fitness, one replicate, main component drawn
Conditions	partner 0.1562 µg/mL	partner 0.3125 µg/mL	partner 0.62 µg/mL	partner 0.625 µg/mL	partner 1.24 µg/mL	partner 2.48 µg/mL
S. aureus DSM 20231 [3], first compound 0.06 µg/mL	0.665	0.7	–	0.697	–	–
S. aureus DSM 20231 [3], first compound 0.12 µg/mL	0.497	0.468	–	0.513	–	–
S. aureus Newman [4], first compound 0.0075 µg/mL	–	–	0.679	–	0.608	0.337
S. aureus Newman [4], first compound 0.015 µg/mL	–	–	0.608	–	0.488	0.0713
S. aureus Newman [4], first compound 0.03 µg/mL	–	–	0.0881	–	0.0113	0.0176
